{"source": "patent US20200148617A1", "about": "“GEMCABENE, PHARMACEUTICALLY ACCEPTABLE SALTS THEREOF, COMPOSITIONS THEREOF AND METHODS OF USE THEREFOR” (GEMPHIRE THERAPEUTICS INC., priority 2017, published 2020)", "key": {"[1]": {"test": "Steady-state plasma gemcabene pharmacokinetics, 600 mg daily, healthy female subjects", "type": "in vivo", "conditions": "human, oral", "procedure": "(§1) An open-label, two-sequence, cross-over study to assess the steady-state effects of gemcabene on the single-dose pharmacokinetics (PK) of oral contraceptive tablets in healthy female subjects was conducted with 300 mg tablets containing gemcabene calcium salt hydrate Crystal Form 1 having PSD90 of 52 μm (Tablet F).\n(§2) The population for this study was generally healthy, adult female subjects of childbearing potential (≥18 to ≤35 years of age). This population supports the overall objective of the study to evaluate the effect of 600 mg of gemcabene calcium salt hydrate Crystal Form 1 having PSD90 of 52 μm at steady-state on the PK of a single dose of ON 1/35 (Ortho Novum 1/35; combined ethinyl estradiol/norethindrone oral contraceptive). The primary objective of this study was to assess the effect of daily 600 mg of gemcabene calcium salt hydrate Crystal Form 1 having PSD90 of 52 μm at steady-state on the pharmacokinetics (PK) of ON 1/35. The secondary objectives of this study were to assess the safety and tolerability of daily gemcabene 600 mg in combination with a single-dose ON 1/35 and to assess the steady-state PK of 600 mg of gemcabene calcium salt hydrate Crystal Form 1 having PSD90 of 52 μm (Tablet F×2).\nGemcabene calcium salt hydrate Crystal Form 1 having PSD90 of 52 μm was administered orally as a single dose of 600 mg, given as two 300 mg tablets (300-mg Tablet F×2) (with 240 mL of water). Gemcabene calcium salt hydrate Crystal Form 1 having PSD90 of 52 μm (600 mg) was administered at the same time each day."}, "[2]": {"test": "Steady-state pharmacokinetics of gemcabene at 300, 600, 900 mg/day in FH patients", "type": "in vivo, human", "conditions": "for Cmax / AUC(0-t) / CL/F: mean", "procedure": "This was an open-label, dose-finding, 3-period, 3-treatment study using successively escalating doses of 300 mg, 600 mg, and 900 mg gemcabene calcium salt hydrate Crystal Form 1 having PSD90 of 52 μm in patients clinically diagnosed with familial hypercholesterolemia (FH). The treatment plan was for each of 8 patients to receive each of the successive doses, daily, for 4 weeks at a time with no interruption in gemcabene calcium salt hydrate Crystal Form 1 dosing between the dose levels. That is, the 8 FH patients were administered daily oral doses of gemcabene calcium salt hydrate Crystal Form 1 having PSD90 of 52 μm at 300 mg/day on Days 1-28, 600 mg/day on Days 29-56, and 900 mg/day on Days 57-84. Pharmacokinetic plasma samples were collected pre-dose and 0.5, 1, 2, 3, 5, and 12 hours post-dose on Day 28, Day 56, and Day 84. Additional (trough) samples were collected pre-dose on Day 14, Day 42, Day 70, and at the Early Termination Visit (if applicable). Plasma from these samples were analyzed for gemcabene concentrations and the data used for PK analysis. Plasma sample concentrations were available for pharmacokinetic analysis for all but 1 patient for whom no results were reported following the 900 mg dose on Day 84. Since there were no days off between dose levels, the starting plasma concentration for the 600 mg and 900 mg treatment periods was the steady state concentration for 300 mg and 600 mg, respectively.\nDuring Days 1-28, patients received one 300-mg strength tablet containing gemcabene calcium salt hydrate Crystal Form 1 having PSD90 of 52 μm (Tablet D); during the Days 29-56, patients received two 300-mg strength tablets (2× Tablet D); and during the Days 57-84, patients received three 300-mg strength tablets (3× Tablet D) per day.\nPK parameter estimates were derived by standard non-compartmental analysis methods using a validated installation of Phoenix® WinNonlin® version 6.4. The actual sampling times were used in the PK parameter calculations.\nAll plasma concentrations reported as missing were treated as missing. Steady state was assumed following QD administration for 28 days and therefore, plasma gemcabene concentrations at 24 hours post-dose were used as the pre-dose concentrations.\nThe following gemcabene PK parameters were calculated for each patient from the plasma concentration-time data:\nAUClast and AUC(0-24) were calculated by numeric integration using the trapezoidal rule with linear up and log down interpolation.\nThe criterion for dose proportionality is 95% CI around the slope containing the value “1”.\nThe individual patient and gemcabene concentration-time data are listed using the number of significant digits or decimal places provided by the bioanalytical lab and nominal sample times, and summarized descriptively in tabular formats by dose level, and visit (for trough samples)."}, "[3]": {"conditions": "female, human, in vivo", "procedure": "as §1\nas §2, with “F×2). […]” for “F×2).”"}}, "note": "Like-named read-outs stand apart in the source and are kept apart here."}
{"compound": "CC(C)(CCCCOCCCCC(C)(C)C(=O)O)C(=O)O", "note": "[gemcabene, 6-(5-carboxy-5-methyl-hexyloxy)-2,2-dimethyl-hexanoic acid]", "values": [{"measurement": "concentration at 6 day", "setting": "[1]; Day 6, Treatment B, read-out: mean plasma gemcabene trough concentration", "result": 98.8, "unit": "µg/mL"}, {"measurement": "concentration at 7 day", "setting": "[1]; Day 7, Treatment B, read-out: mean plasma gemcabene trough concentration", "result": 106, "unit": "µg/mL"}, {"measurement": "concentration at 8 day", "setting": "[1]; Day 8, Treatment B, read-out: mean plasma gemcabene trough concentration", "result": 104, "unit": "µg/mL"}, {"measurement": "Cmax", "setting": "[1]; steady state, read-out: mean Cmax,ss", "result": 178, "unit": "µg/mL"}, {"measurement": "dose proportionality of AUC(0-24)", "setting": "[2]; 300 mg/day to 900 mg/day", "result": "increased dose proportionally"}, {"measurement": "dose proportionality of Cmax", "setting": "[2]; 300 mg/day to 900 mg/day", "result": "slightly less than dose proportional"}, {"measurement": "Cmax", "setting": "[2]; human, oral, 300 mg/day (Tablet D), Day 28 steady state, FH patients, plasma, n=8", "result": 84.8, "unit": "µg/mL"}, {"measurement": "Cmax", "setting": "[2]; human, oral, 600 mg/day (2× Tablet D), Day 56 steady state, FH patients, plasma, n=8", "result": 149, "unit": "µg/mL"}, {"measurement": "Cmax", "setting": "[2]; human, oral, 900 mg/day (3× Tablet D), Day 84 steady state, FH patients, plasma, n=7", "result": 195, "unit": "µg/mL"}, {"measurement": "AUC(0-t)", "setting": "[2]; human, plasma, oral, 300 mg/day, 300 mg/day (Tablet D), steady state, FH patients, n=8, read-out: AUC0-24", "result": 1550, "unit": "µg·h/mL"}, {"measurement": "AUC(0-t)", "setting": "[2]; human, plasma, oral, 300 mg/day, 300 mg/day (Tablet D), steady state, FH patients, n=8, read-out: AUClast", "result": 1590, "unit": "µg·h/mL"}, {"measurement": "AUC(0-t)", "setting": "[2]; human, plasma, oral, 600 mg/day, 600 mg/day (2× Tablet D), steady state, FH patients, n=8, read-out: AUC0-24", "result": 2680, "unit": "µg·h/mL"}, {"measurement": "AUC(0-t)", "setting": "[2]; human, plasma, oral, 600 mg/day, 600 mg/day (2× Tablet D), steady state, FH patients, n=8, read-out: AUClast", "result": 2700, "unit": "µg·h/mL"}, {"measurement": "AUC(0-t)", "setting": "[2]; human, plasma, oral, 900 mg/day, 900 mg/day (3× Tablet D), steady state, FH patients, n=7, read-out: AUC0-24", "result": 3530, "unit": "µg·h/mL"}, {"measurement": "AUC(0-t)", "setting": "[2]; human, plasma, oral, 900 mg/day, 900 mg/day (3× Tablet D), steady state, FH patients, n=7, read-out: AUClast", "result": 3490, "unit": "µg·h/mL"}, {"measurement": "Tmax", "setting": "[2]; human, plasma, oral, 300 mg dose level, after 28 daily doses, min-max 1.0-2.0 h, read-out: Median Tmax", "result": 1.6, "unit": "h"}, {"measurement": "CL/F", "setting": "[2]; human, plasma, oral, 300 mg/day (Tablet D), steady state, FH patients, n=8", "result": 3.55, "unit": "mL/min"}, {"measurement": "Tmax", "setting": "[2]; human, plasma, oral, 300 mg/day (Tablet D), steady state, FH patients, median, n=8, read-out: Tmax", "result": 1.6, "unit": "h"}, {"measurement": "Tmax", "setting": "[2]; human, plasma, oral, 600 mg dose level, after 28 daily doses, min-max 0.93-3.0 h, read-out: Median Tmax", "result": 1.5, "unit": "h"}, {"measurement": "CL/F", "setting": "[2]; human, plasma, oral, 600 mg/day (2× Tablet D), steady state, FH patients, n=8", "result": 3.9, "unit": "mL/min"}, {"measurement": "Tmax", "setting": "[2]; human, plasma, oral, 600 mg/day (2× Tablet D), steady state, FH patients, median, n=8, read-out: Tmax", "result": 1.5, "unit": "h"}, {"measurement": "Tmax", "setting": "[2]; human, plasma, oral, 900 mg dose level, after 28 daily doses, min-max 0.98-3.0 h, read-out: Median Tmax", "result": 1.9, "unit": "h"}, {"measurement": "CL/F", "setting": "[2]; human, plasma, oral, 900 mg/day (3× Tablet D), steady state, FH patients, n=7", "result": 4.52, "unit": "mL/min"}, {"measurement": "Tmax", "setting": "[2]; human, plasma, oral, 900 mg/day (3× Tablet D), steady state, FH patients, median, n=7, read-out: Tmax", "result": 1.9, "unit": "h"}, {"measurement": "concentration at 14 day of the 900 mg/day period", "setting": "[2]; human, plasma, oral, 900 mg/day treatment period, Day 14, read-out: trough gemcabene plasma concentration, patient 006-003", "result": 122, "unit": "µg/mL"}, {"measurement": "concentration at 28 day of the 900 mg/day period", "setting": "[2]; human, plasma, oral, 900 mg/day treatment period, Day 28, read-out: trough gemcabene plasma concentration, patient 006-003", "result": 43.5, "unit": "µg/mL"}, {"measurement": "Tmax", "setting": "[2]; human, plasma, oral, 300 to 900 mg/day, read-out: median Tmax values across dose levels", "result": "1.5 to 1.9", "unit": "h"}, {"measurement": "subjects with drug-related TEAE (constipation)", "setting": "[3]", "result": 1, "unit": "subject"}]}
